In ChEMBL document CHEMBL3091316, “Antiangiogenic tocotrienol derivatives from Garcinia amplexicaulis” (J Nat Prod, 2013):
Active and inactive are the calls of the source. No cut-off for these calls is given here.

What was measured:
HUVEC [1] = assay: Inhibition of VEGF-induced HUVEC proliferation at 25 nM to 2.5 uM incubated for 30 mins prior to VEGF challenge measured after 24 hrs by fluorescence assay; assay type: functional, cell-based; details: Homo sapiens
HUVEC [2] = assay: Antiangiogenic activity in HUVEC assessed as inhibition of VEGF-induced capillary network formation at 25 nM to 2.5 uM after 24 hrs by matrigel assay; assay type: functional, cell-based; details: Homo sapiens
HUVEC [3] = assay: Antimigratory activity in VEGF-induced HUVEC assessed as decrease in cell migration at 25 nM to 2.5 uM incubated for 30 mins prior to VEGF challenge measured after 24 hrs by Transwell assay; assay type: functional, cell-based; details: Homo sapiens
HUVEC [4] = assay: Cytotoxicity against HUVEC assessed as cell viability at 25 nM to 2.5 uM after 24 to 48 hrs by MTT assay; assay type: cell-based; details: human, 0.025 µM
HUVEC [5] = assay: Antiadhesive activity in HUVEC assessed as decrease in cell adhesion at 25 nM to 2.5 uM after 24 hrs by crystal violet staining technique; assay type: functional, cell-based; details: Homo sapiens
HUVEC [6] = assay: Antimigratory activity in VEGF-induced HUVEC assessed as decrease in cell migration at 2.5 uM incubated for 30 mins prior to VEGF challenge measured after 24 hrs by Transwell assay; assay type: functional, cell-based; details: Homo sapiens

SMILES | inhibition (HUVEC [1]) | Activity (HUVEC [2]) | Activity (HUVEC [3]) | Activity (HUVEC [4]) | Activity (HUVEC [5]) | Activity (HUVEC [6])
C/C(=C\CC/C(C)=C/CC[C@]1(C)CCc2cc(O)c(C)c(C)c2O1)CCC=C(CO)CO | Active | Active | inactive | Non-toxic | inactive | –
C/C(=C\CC/C(C)=C/CC[C@]1(C)CCc2cc(O)cc(C)c2O1)CCC=C(CO)CO | Active | Active | – | Non-toxic | Active | Active
